In patent US20150374691A1, “METHODS AND MATERIALS FOR TREATING ORTHOSTATIC HYPOTENSION OR POSTURAL TACHYCARDIA SYNDROME” (Mayo Foundation for Medical Education and Research, priority 2009, published 2015):

Columns and labels:
[1] = tested on: patients with myasthenic syndromes; details: among 132 patients enrolled, cited from earlier work
[2] = tested on: patient with Lambert-Eaton myasthenic syndrome who also suffered from orthostatic hypotension; assay: blood pressure and heart rate response to head-up tilt before and after 3,4-DAP; type: in vivo, human; details: one patient, after oral administration of 20 mg 3,4-DAP; before administration a significant drop was observed (FIG. 1)
Procedure: FIG. 1 is a graph plotting the blood pressure and heart rate response to head-up tilt in a patient with orthostatic hypotension before (left) and after (right) oral administration of 20 mg of 3,4-DAP.
The effects of administering 3,4-DAP to a patient with orthostatic hypotension were studied. Briefly, the blood pressure and heart rate response to head-up tilt was studied in a patient with Lambert-Eaton myasthenic syndrome who also suffered from orthostatic hypotension before and after oral administration of 20 mg 3,4-DAP. Before administration of 3,4-DAP, a significant orthostatic blood pressure drop was observed after a head-up tilt (FIG. 1, left).

## Nc1ccncc1N [3,4-DAP, 3,4-diaminopyridine]
[1]; after being on the medication for years, clear cause-effect relationship not established
  seizures: two patients experienced a self-limited seizure
[1]
  complications related to cardiac arrhythmias: no noted complications related to cardiac arrhythmias
[2]
  orthostatic blood pressure drop after a head-up tilt: did not exhibit a significant orthostatic blood pressure drop
